{"source": "patent US12419890B2", "about": "“Administration of sumo-activating enzyme inhibitor and checkpoint inhibitors” (Takeda Pharmaceutical Company Limited, priority 2019, dated 2025)", "key": {"[1]": {"test_system": "A20 syngeneic mouse B-cell lymphoma-derived subcutaneous tumor", "assay": "A20 Study 3: mouse A20 syngeneic tumor model, individual tumor volume", "assay_type": "in vivo", "description": "A20 Study 3: A20 is a mouse B-cell lymphoma cell line. A20 mouse syngeneic tumor model was generated by subcutaneous inoculation with 1.0×10^6 A20 cells (cell suspension) in 8 weeks old female BALB/c mice (Jackson Laboratory, 600 Main St, Bar Harbor, ME) in the flank. When the mean tumor volume reached approximately 50 mm^3, the animals were randomized into one vehicle control and three treatment groups (n=7/group). Mice were then dosed with 20% HPbCD or Compound I-263a or anti-mouse PD-1 antibody over a 11-day period. Tumor growth and body weight were measured twice per week during the treatment and post-treatment periods, and mice were humanely euthanized once they had reached their humane endpoint.\n(§1) Study 3: A 1.65 mg/mL stock solution of Compound I-263a was formulated weekly in 20% HPβCD and administered intravenously (IV) based on exact animal body weight on each day of treatment, using a dosing volume of 10 mL/kg body weight. Final doses received were 15 mg/kg. Dosing volume for Compound I-263a was 0.2 mL. […]\n(§2) Tumors were measured twice weekly using vernier calipers. Tumor volumes were calculated using standard equation: V=W^2×L/2, where V=volume, W=width, and L=length for the tumor. […] Tumor size and body weight were measured twice a week for the duration of the study. […]"}, "[2]": {"test_system": "MC38 syngeneic mouse colon adenocarcinoma-derived subcutaneous tumor", "assay": "MC38 Study 8: mouse MC38 syngeneic tumor model, individual tumor volume", "assay_type": "in vivo", "conditions": "BIWx3 till Day 17", "description": "MC38 Study 8: MC38 is a mouse colon adenocarcinoma cell line. MC38 mouse syngeneic tumor model was generated by subcutaneous inoculation with 1.0×10^6 MC38 cells (cell suspension) in 11 weeks old female C57BL/6 mice (SINO-British SIPPR/BK Lab Animal Ltd., Shanghai, China) in the flank. When the mean tumor volume reached approximately 60 mm^3, the animals were randomized into one vehicle control and five treatment groups (n=8/group). Mice were then dosed with 20% HPbCD or Compound I-263a or anti-mouse PD-1 antibody over a 21-day period. Tumor growth and body weight were measured twice per week during the treatment and post-treatment periods, and mice were humanely euthanized once they had reached their humane endpoint.\nas §1, with “8:” for “3:”, “0.75” for “1.65”, “7.5” for “15”\nas §2"}}, "data": [{"smiles": "Cc1sc(C(=O)c2cncnc2N[C@@H]2C[C@H](COS(N)(=O)=O)[C@@H](O)C2)cc1[C@@H]1NCCc2ccc(Cl)cc21", "note": "[Compound I-263a, [(1R,2S,4R)-4-{[5-({4-[(1R)-7-chloro-1,2,3,4-tetrahydroisoquinolin-1-yl]-5-methyl-2-thienyl}carbonyl)pyrimidin-4-yl]amino}-2-hydroxycyclopentyl]methyl sulfamate]", "values": [{"measurement": "inhibition of tumor growth", "setting": "[1]; Compound I-263a 15 mg/kg IV QWx1 (Day 1), 7 tumors/group", "value": "modest inhibition"}, {"measurement": "tumors in stasis", "setting": "[1]; stasis to day 8 of treatment, followed by rapid growth, out of 7 implanted, Compound I-263a 15 mg/kg IV Day 1", "value": 2}, {"measurement": "tumors with tumor growth delay", "setting": "[2]; delay day 11-14, Compound I-263a 7.5 mg/kg IV or anti-mPD-1 10 mg/kg IP", "value": 1}, {"measurement": "tumors with tumor growth delay", "setting": "[2]; delay from day 7-18, 8 implanted tumors, Compound I-263a 7.5 mg/kg IV alone or plus anti-mPD-1 10 mg/kg IP", "value": 2}]}]}
